Tests used:
[1] = tested on: SIV (simian immunodeficiency virus); set-up: method as in PMID 9448264; conditions: cited from earlier work
[2] = tested on: FIV-C (CABCpady00C); test: FIV-C infection of cats with oral TL-3 treatment (viral load, disease, survival); type: in vivo, cat
Experimental: Twenty-two female specific pathogen-free (SPF) cats were randomly divided into five groups. Group 0 consisted of two cats, which received TL-3 treatment without viral infection and were considered controls. Group 1 (n = 5) received 0.1 ml (10^5 RNA copies/ml) of FIV-C-infected plasma I.V. with TL-3 drug treatment. Group 2 (n = 5) received 0.1 ml FIV-C-infected plasma without TL-3 treatment. Group 3 (n = 5) received 0.5 ml FIV-C-infected plasma with TL-3 and Group 4 (n = 5) received 0.5 ml FIV-C-infected plasma without TL-3 treatment. Blood (1 ml) was drawn from all cats prior to the start of the experiment, at weekly intervals for the first four weeks after infection, and at bi-monthly intervals from week 4 until the end of the study. Complete blood counts were assessed as a function of infection and TL-3 treatment. In addition, quantitative reverse transcription PCR (QRT-PCR) analyses were performed to assess plasma viral load. All animals were continuously observed for any changes in general health. No significant differences were noted between viral load or disease phenotype between the two plasma dosages used in infection and subsequent discussion will not distinguish between these two groups.
Plasma samples (10^5 RNA copies/ml) from a cat, that had died from an acute infection with CABCpady00C (FIV-C), were kindly provided by Dr. E. Hoover, of Colorado State University. Cats were injected I.V. with either 0.1 ml (10^5 RNA copies/ml) or 0.5 ml of plasma.
(§1) All procedures for care of cats during dosing as well as dosing procedures were mandated by TSRI's IACUC. Oral TL-3 (L-Iditol,1,2,5,6-tetradeoxy-1,6-diphenyl-2,5-bis [N-[(phenylmethoxy)carbonyl]-L-alanyl-L-valyl]amino]) treatment was initiated in 12 cats, three days prior to infection of ten of the twelve animals with FIV-C. All TL-3 treated animals received 20 mg TL-3 by capsules at eight hour intervals, for approx. the first 7.5 weeks of the experiment. Dosage was then doubled to 40 mg TL-3 per dose at eight hour intervals for an additional week for the two control animals and the eight surviving animals in the TL-3 treated, infected cohort.
Animals were examined daily and in case of health concerns further therapy/diagnostics were initiated. Animals with abnormal weight, or on antibiotics were placed on supplemental feeding with moist food and Nutrical. Dehydrated animals received subcutaneous fluid therapy. More affected animals received supportive care and medications, consisting of BID administration of antibiotics (Baytril), BID subcutaneous fluid therapy, BID temperature evaluation, BID application of antibiotic ophthalmic ointment supportive care. Any animals that required extensive supportive care (TID fluid therapy, TID force feeding) were euthanized. Euthanasia of research animals was conducted with strict adherence to NIH Office of Laboratory Animal Welfare protocols.
Plasma for weeks 0, 2, 4, 6 (terminal points for cats 215, 221, and 229), 6.5 (terminal points for cats 219, 220, and 234), and 8, were isolated from whole blood by centrifugation and stored at -20°C. Viral RNA was extracted using the QiaAmp Viral RNA Isolation Kit (Qiagen, Valencia, CA) according to manufacturer's instructions with slight modifications: Plasma samples (280 μl) were lysed in buffer AVL (1,120 μl) (Qiagen) for 10 minutes at room temperature in the presence of carrier RNA (10 μg/ml) and an external Kanamycin (KAN) RNA spike. Equal amounts of the external RNA spike (10^9 copies RNA /280 μl plasma), corresponding to the 1.2 kb KAN gene (Promega, Madison, WI), was used to normalize plasma volumes between samples and to correct for sample loss from viral RNA extraction and cDNA synthesis. An on-column DNase/ RNase free (Qiagen) incubation step for 10 minutes at room temperature was added to remove residual cellular DNA. […]

[3] = molecular target: T1, FIV-C protease mutant N55D (HIV46M) (Feline immunodeficiency virus, UniProt P16088, N93D); test: Inhibitor constant (Ki) of TL-3 against mutant FIV-C protease N55D; type: biochemical; conditions: PR mutation N55D (HIV46M), cat 231
T1 construct: adds a stop codon and a Hind III restriction site to the C-terminus of the protease; Met-Ala N-terminal extension (printed 'methionine, and alkaline'; the primer codes ATG GCA) (N); made in house; host or cells: E. coli Rosetta pLysS, pET21a
Excerpt: (§2) Complementary DNA (cDNA) was synthesized from isolated plasma viral RNA of infected cats. […] The amplified PCR product was gel purified and cloned into pCR-TOPOII vector (Invitrogen, Carlsbad, CA) for sequencing. Selected DNA of mutants, N55D, H72R, D105G, and M107R were digested with Nde I/Hind III and ligated into pET21a expression vector (Novagen). The mutant FIV-C proteases were expressed in Rosetta pLysS cells (Novagen) and purified as previously described.
(§3) Enzyme kinetics of FIV-C protease were assayed on the flourogenic substrate Arg-Ala-Leu-Thr-Lys(Abz)-Val-Gln/Phe(NO2)-Val-Gln-Ser-Lys-Gly-Arg-NH2. […] Inhibitor constant (Ki) of TL-3 against mutant FIV-C protease was analyzed as described.

[4] = tested on: HIV-1; set-up: method as in PMID 9448264; conditions: cited from earlier work
[5] = molecular target: FIV-C protease mutant D105G (HIV88N) (Feline immunodeficiency virus, UniProt P16088, D143G)
Excerpt: as §2, §3

[6] = tested on: FIV-PPR; conditions: FIV-PPR infected cats; cited from earlier work
[7] = Tolerability of oral TL-3 in uninfected control cats; type: in vivo, cat; conditions: TL-3 treated controls, 20 mg then 40 mg oral every eight hours
Experimental: as §1

[8] = molecular target: wild-type FIV-C protease; test: Inhibitor constant (Ki) of TL-3 against wild-type FIV-C protease, fluorogenic substrate; type: biochemical, feline immunodeficiency virus (FIV-C); conditions: wildtype PR
Excerpt: as §2, §3

[9] = molecular target: T2, FIV-C protease mutant H72R (HIV63L) (Feline immunodeficiency virus, UniProt P16088, H110R); test: Inhibitor constant (Ki) of TL-3 against mutant FIV-C protease H72R; type: biochemical; conditions: PR mutation H72R (HIV63L), cat 231
T2 construct: adds a stop codon and a Hind III restriction site to the C-terminus of the protease; Met-Ala N-terminal extension (printed 'methionine, and alkaline'; the primer codes ATG GCA) (N); made in house; host or cells: E. coli Rosetta pLysS, pET21a
Excerpt: as §2, §3

[10] = tested on: FIV; set-up: method as in PMID 9448264; conditions: cited from earlier work

CC(C)[C@H](NC(=O)[C@H](C)NC(=O)OCc1ccccc1)C(=O)N[C@@H](Cc1ccccc1)[C@@H](O)[C@H](O)[C@H](Cc1ccccc1)NC(=O)[C@@H](NC(=O)[C@H](C)NC(=O)OCc1ccccc1)C(C)C [TL-3]
inhibition of infection in vitro [1]: inhibits
animals that had lost weight ([2]; 6 weeks post infection, + TL-3 cohort, three also in -TL-3 cohort): three
animals that required euthanasia ([2]; TL-3 treated group, of six euthanized, four from untreated cohort): two
average (peak) viral loads vs untreated animals ([2]; acute phase, did not reach statistical significance): lower
animals showing clinical signs of debilitating acute phase disease ([2]; by week 6 post infection, TL-3 treated groups, of seven affected, four untreated): three
prevention of viremia ([2]; oral monotherapy, high dose FIV-C): did not prevent viremia
plasma viremia, TL-3 treated vs untreated cohorts ([2]; week 2 post infection): little differences in viral loads
animals with viral loads below detection limits ([2]; week 8 post infection, surviving TL-3 treated cats, oral 20 mg every eight hours, untreated: one of six): four of 8 and half
Ki [3]: 0.0091 µM
inhibition of infection in vitro [4]: inhibits
resistance against TL-3 relative to wild type protease ([5]; D105G mutant vs wild type FIV-C protease): 5 fold
Ki ([5]; read-out: Ki vs TL-3, PR mutation D105G (HIV88N), cloned from cats 231 and 222): 0.0473 µM
effect on delays in brainstem auditory evoked potentials (BAEPs) [6]: could reverse this effect
effect on neurologic alterations in the CNS [6]: significant protective effect
plasma viral loads [6]: lowered plasma viral loads
adverse effects [7]: No adverse effects
Ki [8]: 0.0099 µM
Ki [9]: 0.0109 µM
inhibition of infection in vitro [10]: inhibits
